# Where two headings read alike, the source gives them in different places.
# Legend:
# CEM-SS cells = experiment: XTT assay toxicity in CEM-SS cells (IC50); type: cell-based; settings: for IC50: Homo sapiens, CEM-SS cells
# Excerpt: Briefly, the infected cells in culture are killed by the virus, and the cytotoxicity is detected by the formation of color due to the […] of a formazan dye (XTT) by enzymes released by the dying cells (Weislow et al., J. Natl. Cancer Inst. 81:577-586, 1989). An effective antiviral drug is able to protect the infected cells from cytotoxicity by inhibiting some vital function of the virus. […] FIGS. 4 and 5 show the cytoprotective activity of WMC26 and WMC42. Since many drugs can also be toxic to cells in their own right, a parallel experiment is carried out wherein uninfected cells are treated with the drugs until a concentration is reached where the cells are killed by the action of the drug.
# As a result of these preliminary data, additional experiments were carried out to establish the antiviral activity in other cell lines, using a variety of protocols. The preliminary experiments in lymphocytes were confirmed using infected macrophages. Much more extensive experiments were carried out in HIV-1-infected CEM SS leukemia cells. […] However, two derivatives were found which had low antileukemic activity while maintaining high antiviral activity. […] This gives a therapeutic index of more than 3 orders of magnitude. The corresponding therapeutic index for WMC50 is about 100-200, which is quite acceptable. Additional experiments were carried out on WMC-70. […] Further, WMC-70 appears to affect post-transcription events in the virus. […] While the inhibition of integration appears to be the principal mechanism by which this compound exerts its antiviral activity, there are perhaps other mechanisms which are also involved in the therapeutic action of this drug, and by extension, of other antiviral drugs of this class.
# (§1) The antiviral properties of the WMC series of compounds were evaluated. First, all compounds were tested for their ability to inhibit HIV-1 replication in cell culture using the XTT cytoprotection assay. This assay measures the concentration-dependent capacity of compounds to protect CEM-SS cells from the cytopathic effects of HIV-1. […] Thus, temacrazine was the most efficacious compound in the XTT cytoprotection assay. This conclusion was also reached when the compounds were tested for anti-HIV-1 activity against HIV-1ADA in human monocyte/macrophage cultures (Table 1).
# HIV-1ADA = experiment: anti-HIV-1 activity in monocyte/macrophage cultures; type: cell-based; settings: Human immunodeficiency virus 1; HIV-1ADA, human monocyte/macrophage cultures; read-out: Mo/Mφ EC50
# Method: as §1
# [1] = system: attachment of HIV-1RF to CEM-SS cells; experiment: attachment of virions to CEM-SS cells (cell-bound p24 ELISA); type: cell-based; settings: Human immunodeficiency virus 1, CEM-SS
# Excerpt: (§2) Based on the findings thus far our efforts have focused on biological assays of the temacrazine congener.
# HIV-1 protease = HIV-1 protease (Human immunodeficiency virus type 1 group M subtype B, UniProt P04585); experiment: Pr55gag processing assay with recombinant protease; type: biochemical; settings: enzyme pretreated one hour at 37° C.
# Method: However, to insure that the HPLC-based assay (used in Table 1) was providing accurate findings, the action of temacrazine in the Gag processing assay was evaluated. In this assay, purified recombinant HIV-1 protease enzyme was pretreated with the test reagent for one hour at 37° C., and then exposed the recombinant Pr55^gag precursor polyprotein to the treated enzyme.
# [2] = molecular target: p7 nucleocapsid protein zinc fingers (Human immunodeficiency virus type 1 group M subtype B, UniProt P04591); experiment: p7NC zinc finger fluorescence assays (TSQ, Trp37); type: biochemical, HIV-1
# Excerpt: as §2
# HIV-1 in U1 cells = experiment: TNF-α stimulated latently infected U1 cells, virus production; type: cell-based
# Method: As a model of the late phase events during the HIV-1 replication cycle, U1 cells were used that are latently infected with two copies of HIV-1 proviral DNA. The high level expression of virus production in these U1 cells can be stimulated by certain factors, such as TNF-α. U1 cells were stimulated with TNF-α for 24 hours, after which were added various concentrations of temacrazine, and the cultures were allowed to incubate for 48 additional hours. At that time, the cells were evaluated for viability and for their content of viral protein synthesis and processing, while the cell-free supernatant was evaluated for viral p24 content and for the infectious titer of released virions.
# After TNFα induction and temacrazine treatment, cultures were continued for 72 h after which virion-associated p24 and cell viability (XTT dye reduction) were measured.
# HIV-1 in ACH-2 cells = experiment: TNFα stimulated latently infected ACH-2 cells, virus production; type: cell-based; settings: Human immunodeficiency virus 1, 72 h, read-out: EC50, inhibition of HIV-1 virus replication (virion-associated p24)
# Method: In a similar study, cells were either treated for 24h with TNFα followed by the addition of temacrazine, or temacrazine and TNFα were added simultaneously, or temacrazine was added 24 h […] TNFα addition. After TNFα induction and temacrazine treatment, cultures were continued for 72 h after which virion-associated p24 and cell viability (XTT dye reduction) were measured.
# [3] = system: HIV-1 LTR-directed chloramphenicol acetyltransferase (CAT) activity; experiment: LTR-directed CAT activity in BF-24 cells; type: cell-based; settings: 24 h, temacrazine up to 5 μM
# Excerpt: Initiation and regulation of HIV-1 transcription requires a complex series of interactions with cellular transcription factors, such as NFkB, SP-1 and AP-1, and the participation of cellular factors in the transcriptional complex. In addition, the post-integrative model used here requires TNFα stimulated U1 and ACH-2 cells, this model requires not only the participation of the NFkB transcriptional complex, and also components of the TNFα signaling pathway. In order to rule out that temacrazine was non-specifically effecting transcription or down-regulating replication by interfering with the TNFα signal pathway, LTR-directed chloramphenicol acetyltransferase (CAT) activity was measured in BF-24 cells. BF-24 cells are derived from the THP-1 monocytic cell line and carry a stably integrated CAT gene under the transcriptional control of the HIV-1 LTR (S. Schwartz, et al., Proc. Natl. Acad. Sci. USA 86:7200 (1989); B. K. Felber, et al., Science 239:184 (1988)). The LTR in this monocytic cell line is inducible by IL-6, PMA and TNFα, and produces enzymatically active chloramphenicol transferase (“CAT”). […]
# CAT activity was determined using a fluorescent Bodipy conjugated chloramphenicol after 18 h of reaction with 50 μg of protein extract containing Acetyl CoA.
# HIV-1 specific mRNA = experiment: Northern blotting of total HIV-1 mRNA in U-1 cells; type: cell-based; settings: TNFα stimulated U-1 cells
# Excerpt: To assess the possibility that temacrazine was regulating HIV-1 mRNA expression, the expression of total HIV-1 mRNA by Northern blotting was examined (FIG. 16).
smiles,measurement,setting,value
O=c1c2ccccc2n2nnc3ccc(NCCCN4CCN(CCCNc5ccc6nnn7c8ccccc8c(=O)c5c67)CC4)c1c32 [temacrazine],concentration at which the drug kills 50% of the cells,CEM-SS cells; CEM SS cells,greater than micromolar concentrations
same,IC50,"CEM-SS cells; Table 1, read-out: XTT Assay IC50",2770 nM
same,IC50,"CEM-SS cells; read-out: IC50 toxicity value, XTT assay",2770 nM
same,EC50,HIV-1ADA,10 nM
same,IC50,"[1]; Table 1, read-out: Attachment ID50",> 100000 nM
same,IC50,"[1]; Table 1A, read-out: I50 Attachment",> 100000 nM
same,inhibition of protease in Gag processing assay,HIV-1 protease,had no inhibitory effect
same,damage of the gag protein zinc finger,[2],did not damage
same,production of infectious virus following stimulation with TNFα,HIV-1 in U1 cells; 30 min. pulse of cultures,presented subsequent production of infectious virus
same,EC50,"HIV-1 in U1 cells; Human immunodeficiency virus 1, U1 cells, 72 h, read-out: EC50, inhibition of HIV-1 virus replication (virion-associated p24)",10 to 100 nM
same,infectivity of released viral particles (IU/ml),"HIV-1 in U1 cells; TNF-α 24 h, then drug 48 h",non-infectious
same,concentration at which virus production (p24) was inhibited,"HIV-1 in U1 cells; TNF-α 24 h, then drug 48 h, cell-free supernatant",below 4 nM
same,processing of Gag precursor polyprotein (Pr55gag) to p24 and p7NC,"HIV-1 in U1 cells; cells with integrated virus (U1), Western blotting, listed as WMC-70",no p24 can be detected
same,EC50,HIV-1 in ACH-2 cells,10 to 100 nM
same,CAT induction by TNFα,[3],did not significantly alter CAT induction
same,HIV-1 specific mRNA production,HIV-1 specific mRNA; 1 nM,decrease in single spliced and unspliced mRNA with no apparent decrease in the multi-spliced mRNA
same,HIV-1 specific mRNA production,HIV-1 specific mRNA; 10 and 100 nM,suppressed mRNA production globally

# — patent US6541483B2, “Acridone-derived compounds useful as antineoplastic and antiretroviral agents” (The United States of America as represented by the …, priority 1996, dated 2003)
